This passage reports IC50 results from patent US8809341B2, “2,4-pyrimidinediamine compounds and uses as anti-proliferative agents” (Rigel Pharmaceuticals, Inc., priority 2003, dated 2014).

Test [1] has as its system A549 cells. Put plainly: in vitro antiproliferation assay, A549 (lung). Type of test: cell-based. The conditions noted are these: in vitro antiproliferation, A549 (lung) cells. In outline:
(§1)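 IC50 values came from standard antiproliferation testing in cultured tumour cells; the A549 and H1299 lines are of lung origin.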

For test [2], the system named is H1299 cells. Nature of the test: in vitro antiproliferation assay, H1299 (lung). The conditions noted are these: in vitro antiproliferation, H1299 (lung) cells. The format is cell-based. In outline: as §1

The structures appear in SMILES notation. Bounds are passed on as bounds.

With `CNC(=O)c1cc2cccc(Nc3ncc(F)c(Nc4ccc5c(c4)OC(F)(F)C(F)(F)O5)n3)c2[nH]1` [compound 653], the 50% inhibitory concentration (IC50) in test [1] (Table 7) and in test [2] (Table 7) was ≤ 20 µM each time.
`CNC(=O)c1cc2cccc(Nc3ncc(F)c(Nc4ccc5c(c4)OCO5)n3)c2[nH]1` [compound 655]: the concentration for half-maximal inhibition (IC50) in test [1] (Table 7) and in test [2] (Table 7) was ≤ 20 µM throughout.
For `COC(=O)c1cc2cc(Nc3ncc(F)c(Nc4cc(OC)cc(OC)c4)n3)ccc2o1` [compound 656], the IC50 in test [1] (Table 7) and in test [2] (Table 7) was > 20 µM throughout.
For `COc1cc(Nc2nc(Nc3ccc4oc(C(=O)O)cc4c3)ncc2F)cc(OC)c1` [compound 657], the IC50 in test [1] (Table 7) and in test [2] (Table 7) was > 20 µM throughout.
Turning to `COc1cc(Nc2nc(Nc3ccc4[nH]c(C(C)=O)cc4c3)ncc2F)cc(OC)c1` [compound 658], the values for the IC50 in test [1] (Table 7) and in test [2] (Table 7) were > 20 µM and ≤ 20 µM, respectively.
Taken in the same sequence, the figures for `COC(=O)c1cc2cccc(Nc3ncc(F)c(N(C)c4ccc5c(c4)OCCO5)n3)c2o1` [compound 661] were > 20 µM and > 20 µM.
As to `COC(=O)c1cc2cc(Nc3ncc(F)c(N(C)c4cc(OC)cc(OC)c4)n3)ccc2o1` [compound 662], the values for the IC50 in test [1] (Table 7) and in test [2] (Table 7) were > 20 µM and ≤ 20 µM, respectively.
The corresponding values for `CNC(=O)c1cc2cccc(Nc3ncc(F)c(N(C)c4cc(OC)cc(OC)c4)n3)c2[nH]1` [compound 663] are ≤ 20 µM and ≤ 20 µM.
The corresponding values for `CCOC(=O)c1cc2cccc(Nc3ncc(F)c(Nc4ccc(OC)c(OC)c4)n3)c2[nH]1` [compound 664] are ≤ 20 µM and ≤ 20 µM.
Taken in the same sequence, the figures for `CNC(=O)c1cc2cccc(Nc3ncc(F)c(Nc4ccc(OC)c(OC)c4)n3)c2[nH]1` [compound 665] were ≤ 20 µM and ≤ 20 µM.
Take `CCOC(=O)c1cc2cccc(Nc3ncc(F)c(N(C)c4ccc(OC)c(OC)c4)n3)c2[nH]1` [compound 666]: the IC50 in test [1] (Table 7) and in test [2] (Table 7) was ≤ 20 µM each time.
For the compound `CNC(=O)c1cc2cccc(Nc3ncc(F)c(Nc4cc(C)cc(C)c4)n3)c2[nH]1` [compound 668], the IC50 is > 20 µM in test [1] (Table 7) and ≤ 20 µM in test [2] (Table 7).
Consider `CNC(=O)c1cc2cccc(Nc3ncc(F)c(Nc4cc(OC)cc(C(F)(F)F)c4)n3)c2[nH]1` [compound 669], for which the 50% inhibitory concentration (IC50) in test [1] (Table 7) and in test [2] (Table 7) was ≤ 20 µM throughout.
As for `CNC(=O)c1cc2cccc(Nc3ncc(F)c(Nc4ccc5c(c4)OC(F)(F)O5)n3)c2[nH]1` [compound 670], the IC50 in test [1] (Table 7) and in test [2] (Table 7) was > 20 µM throughout.
As for `COC(=O)c1cc2cc(Nc3ncc(F)c(N(C)c4ccc(OC)c(Cl)c4)n3)ccc2o1` [compound 671], the IC50 in test [1] (Table 7) and in test [2] (Table 7) was > 20 µM each time.
With `COC(=O)c1cc2cc(Nc3ncc(F)c(N(C)c4cc(C)c(Cl)c(C)c4)n3)ccc2o1` [compound 672], the IC50 in test [1] (Table 7) and in test [2] (Table 7) was > 20 µM each time.
Regarding `CCOC(=O)c1cc2cccc(Nc3ncc(F)c(NC4CCC4)n3)c2[nH]1` [compound 678], the half-inhibitory concentration (IC50) in test [1] (Table 7) and in test [2] (Table 7) was > 20 µM each time.
On to `CNC(=O)COc1cccc(Nc2nc(Nc3ccc(OCCN(C)C)cc3)ncc2F)c1` [compound 694], for which the half-inhibitory concentration (IC50) in test [1] and in test [2] was ≤ 20 µM in each case.
With `CNC(=O)COc1cccc(Nc2ncc(F)c(Nc3ccc(Cl)c(Cl)c3)n2)c1` [compound 697], the IC50 in test [1] and in test [2] was ≤ 20 µM each time.
As for `Fc1cnc(Nc2ccc(C(F)(F)F)cc2)nc1Nc1ccc(C(F)(F)F)cc1` [compound 701], the half-maximal inhibitory concentration (IC50) in test [1] and in test [2] was > 20 µM each time.
In the case of `COc1ccc(Nc2ncc(F)c(Nc3ccc(OC)cc3)n2)cc1` [compound 702], the IC50 in test [1] and in test [2] was ≤ 20 µM in each case.
For `CCOc1ccc(Nc2ncc(F)c(Nc3ccc(OCC)cc3)n2)cc1` [compound 704], the 50% inhibitory concentration (IC50) in test [1] and in test [2] was ≤ 20 µM throughout.
On to `CCOc1ccc(Nc2ncc(F)c(Nc3ccc(OC)c(OC)c3)n2)cc1` [compound 713], for which the concentration for half-maximal inhibition (IC50) in test [1] and in test [2] was ≤ 20 µM throughout.
With `CC(C)(C)c1ccc(Nc2ncc(F)c(Nc3ccc(C(C)(C)C)cc3)n2)cc1` [compound 718], the IC50 in test [1] and in test [2] was > 20 µM throughout.
Turning to `Fc1ccc(Nc2ncc(F)c(Nc3ccc(F)c(Cl)c3)n2)cc1Cl` [compound 719], the IC50 in test [1] and in test [2] was > 20 µM throughout.
With `Fc1ccc(Nc2ncc(F)c(Nc3ccc(F)cc3)n2)cc1` [compound 720], the IC50 in test [1] was ≤ 20 µM; in test [2], > 20 µM.
The corresponding values for `Cc1ccc(Nc2ncc(F)c(Nc3ccc(C)cc3)n2)cc1` [compound 721] are > 20 µM and > 20 µM.
Taken in the same sequence, the figures for `COC(=O)COc1cccc(Nc2ncc(F)c(Nc3cccc(OCC(=O)OC)c3)n2)c1` [compound 724] were > 20 µM and ≤ 20 µM.
As to `CNC(=O)COc1cc(Nc2ncc(F)c(Nc3ccc(C)c(OCC(=O)NC)c3)n2)ccc1C` [compound 759], the IC50 in test [1] and in test [2] was ≤ 20 µM in each case.
For the compound `COc1cc(Nc2nc(Nc3cccc(O)c3)ncc2F)cc(OC)c1` [compound 768], the IC50 in test [1] and in test [2] was ≤ 20 µM in each case.
Turning to `CCOC(=O)COc1cccc(Nc2nc(Nc3cc(OC)cc(OC)c3)ncc2F)c1` [compound 769], the IC50 in test [1] and in test [2] was > 20 µM each time.
For the compound `CCOc1ccc(Nc2nc(Nc3cccc(OCC(=O)NC)c3)ncc2F)cc1` [compound 772], the IC50 in test [1] and in test [2] was ≤ 20 µM in each case.
Turning to `Oc1cccc(Nc2nc(Nc3ccc(OC(F)(F)F)c(Cl)c3)ncc2F)c1` [compound 781], the half-inhibitory concentration (IC50) in test [1] and in test [2] was ≤ 20 µM each time.
As to `C=CCNC(=O)COc1cccc(Nc2nc(Nc3cccc(OCC(=O)NC)c3)ncc2F)c1` [compound 791], the IC50 in test [1] and in test [2] was ≤ 20 µM each time.
Regarding `CNC(=O)COc1cc(O)cc(Nc2ncc(F)c(Nc3cccc(O)c3)n2)c1` [compound 797], the IC50 in test [1] is ≤ 20 µM; in test [2] it was > 20 µM.
As for `CNC(=O)COc1cc(Nc2ncc(F)c(Nc3cccc(O)c3)n2)cc(OCC(=O)NC)c1` [compound 798], the 50% inhibitory concentration (IC50) in test [1] and in test [2] was > 20 µM each time.
`COc1ccc(Nc2ncc(F)c(Nc3ccc(OC)c(Cl)c3)n2)cc1Cl` [compound 800]: the half-inhibitory concentration (IC50) was ≤ 20 µM in test [1] and > 20 µM in test [2].
Taken in the same sequence, the figures for `COc1ccc(Nc2nc(Nc3cc(C)c(OC)c(Cl)c3)ncc2F)cc1Cl` [compound 802] were > 20 µM and > 20 µM.
Taken in the same sequence, the figures for `COc1cc(Nc2ncc(F)c(Nc3ccc(N4CCOCC4)c(Cl)c3)n2)cc(C(F)(F)F)c1` [compound 806] were ≤ 20 µM and ≤ 20 µM.
Taken in the same sequence, the figures for `COc1ccc(Nc2nc(Nc3cc(Cl)cc(Cl)c3)ncc2F)cc1Cl` [compound 808] were ≤ 20 µM and ≤ 20 µM.
Regarding `COc1cc(Nc2ncc(F)c(Nc3ccc(OC)c(Cl)c3)n2)cc(C(F)(F)F)c1` [compound 810], the concentration for half-maximal inhibition (IC50) was ≤ 20 µM in test [1] and > 20 µM in test [2].
Taken in the same sequence, the figures for `COc1ccc(Nc2nc(Nc3cc(C)c(C)c(C)c3)ncc2F)cc1Cl` [compound 811] were ≤ 20 µM and > 20 µM.
Taken in the same sequence, the figures for `COc1cc(Nc2ncc(F)c(Nc3cccc(OC(F)(F)F)c3)n2)cc(OC)c1` [compound 812] were ≤ 20 µM and ≤ 20 µM.
In the case of `Cc1cc(C)cc(Nc2ncc(F)c(Nc3cccc(OC(F)(F)F)c3)n2)c1` [compound 813], the concentration for half-maximal inhibition (IC50) in test [1] and in test [2] was > 20 µM each time.
In the case of `COc1cc(Nc2ncc(F)c(Nc3cc(C)cc(C)c3)n2)cc(OC)c1` [compound 814], the 50% inhibitory concentration (IC50) in test [1] and in test [2] was ≤ 20 µM throughout.
With `COc1cc(Nc2ncc(F)c(Nc3cc(C)cc(C)c3)n2)cc(C(F)(F)F)c1` [compound 815], the IC50 in test [1] and in test [2] was ≤ 20 µM each time.
For the compound `Cc1cc(C)cc(Nc2nc(Nc3cc(C)cc(C(F)(F)F)c3)ncc2F)c1` [compound 816], the IC50 in test [1] is ≤ 20 µM; in test [2], > 20 µM.
The corresponding values for `COc1cc(Nc2nc(Nc3cc(C)cc(C)c3)ncc2F)cc(C(F)(F)F)c1` [compound 817] are ≤ 20 µM and ≤ 20 µM.
Taken in the same sequence, the figures for `COc1cc(Nc2ncc(F)c(Nc3cc(OC)cc(C(F)(F)F)c3)n2)cc(OC)c1` [compound 818] were ≤ 20 µM and ≤ 20 µM.
Regarding `COc1cc(Nc2ncc(F)c(Nc3cc(OC)cc(C(F)(F)F)c3)n2)cc(C(F)(F)F)c1` [compound 819], the IC50 in test [1] and in test [2] was ≤ 20 µM in each case.
`COc1cc(Nc2nc(Nc3cc(C)cc(C(F)(F)F)c3)ncc2F)cc(C(F)(F)F)c1` [compound 820]: the half-maximal inhibitory concentration (IC50) in test [1] is > 20 µM; in test [2] it was ≤ 20 µM.
Taken in the same sequence, the figures for `COc1cc(Nc2nc(Nc3cc(OC)c(OC)c(OC)c3)ncc2F)cc(C(F)(F)F)c1` [compound 821] were ≤ 20 µM and ≤ 20 µM.
The corresponding values for `COc1cc(Nc2nc(Nc3cc(C)c(O)c(Cl)c3)ncc2F)cc(C(F)(F)F)c1` [compound 822] are ≤ 20 µM and ≤ 20 µM.
The corresponding values for `COc1cc(Nc2nc(Nc3cc(Cl)cc(Cl)c3)ncc2F)cc(C(F)(F)F)c1` [compound 823] are ≤ 20 µM and ≤ 20 µM.
Consider `COc1cc(Nc2nc(Nc3cc(CO)cc(CO)c3)ncc2F)cc(C(F)(F)F)c1` [compound 824], for which the half-inhibitory concentration (IC50) in test [1] is ≤ 20 µM; in test [2], < 20 µM.
As for `COc1cc(Nc2nc(Nc3cc(C)c(Cl)c(C)c3)ncc2F)cc(C(F)(F)F)c1` [compound 825], the IC50 in test [1] and in test [2] was ≤ 20 µM each time.
In the case of `COc1ccc(Nc2nc(Nc3cc(Cl)c(O)c(Cl)c3)ncc2F)cc1Cl` [compound 828], the IC50 in test [1] and in test [2] was ≤ 20 µM each time.

For orientation: IC50 means the point on the concentration scale where inhibition reaches its midpoint.
